Assay results taken from ChEMBL document CHEMBL3526135, “Induction of xenobiotic receptors, transporters, and drug metabolizing enzymes by oxycodone” (Drug Metab Dispos, 2013).

Assays:
[1] = target: T1, Nuclear receptor subfamily 1 group I member 3 (Homo sapiens, UniProt Q14994); assay: Transactivation of human CAR1 transfected in human primary hepatocytes assessed as nuclear translocation at 1 mM by confocal laser scanning microscopy; format: cell-based, Hepatocyte; conditions: 1000 µM
T1 sequence (Q14994 whole entry): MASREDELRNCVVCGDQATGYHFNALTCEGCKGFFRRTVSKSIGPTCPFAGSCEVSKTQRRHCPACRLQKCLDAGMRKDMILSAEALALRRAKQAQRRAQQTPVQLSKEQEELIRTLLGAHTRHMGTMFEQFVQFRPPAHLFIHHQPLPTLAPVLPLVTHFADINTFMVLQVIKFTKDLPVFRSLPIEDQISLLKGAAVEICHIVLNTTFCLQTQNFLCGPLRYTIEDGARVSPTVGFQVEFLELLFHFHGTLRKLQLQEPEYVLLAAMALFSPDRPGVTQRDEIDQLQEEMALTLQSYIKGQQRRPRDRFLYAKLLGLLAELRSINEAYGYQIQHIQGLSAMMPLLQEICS

[2] = target: T2, Nuclear receptor subfamily 1 group I member 2 (Rattus norvegicus, UniProt Q9R1A7); assay: Transactivation of rat PXR at 0.1 to 30 uM after 24 to 48 hrs by cell-based luciferase reporter gene assay; format: ADME
T2 sequence (Q9R1A7 whole entry): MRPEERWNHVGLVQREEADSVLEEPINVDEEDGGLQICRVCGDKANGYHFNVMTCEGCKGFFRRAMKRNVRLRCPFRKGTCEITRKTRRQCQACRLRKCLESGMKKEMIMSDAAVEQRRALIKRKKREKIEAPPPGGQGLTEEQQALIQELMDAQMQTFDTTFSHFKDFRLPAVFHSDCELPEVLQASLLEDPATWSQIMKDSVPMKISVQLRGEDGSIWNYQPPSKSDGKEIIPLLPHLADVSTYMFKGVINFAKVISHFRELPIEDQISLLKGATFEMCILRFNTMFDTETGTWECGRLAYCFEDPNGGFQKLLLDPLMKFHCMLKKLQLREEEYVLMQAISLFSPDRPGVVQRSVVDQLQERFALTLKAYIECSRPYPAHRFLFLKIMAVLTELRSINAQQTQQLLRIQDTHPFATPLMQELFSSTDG

[3] = target: T3, Aryl hydrocarbon receptor (Homo sapiens, UniProt P35869); assay: Transactivation of human AhR at 0.1 to 30 uM after 24 to 48 hrs by cell-based luciferase reporter gene assay
T3 sequence (P35869 whole entry): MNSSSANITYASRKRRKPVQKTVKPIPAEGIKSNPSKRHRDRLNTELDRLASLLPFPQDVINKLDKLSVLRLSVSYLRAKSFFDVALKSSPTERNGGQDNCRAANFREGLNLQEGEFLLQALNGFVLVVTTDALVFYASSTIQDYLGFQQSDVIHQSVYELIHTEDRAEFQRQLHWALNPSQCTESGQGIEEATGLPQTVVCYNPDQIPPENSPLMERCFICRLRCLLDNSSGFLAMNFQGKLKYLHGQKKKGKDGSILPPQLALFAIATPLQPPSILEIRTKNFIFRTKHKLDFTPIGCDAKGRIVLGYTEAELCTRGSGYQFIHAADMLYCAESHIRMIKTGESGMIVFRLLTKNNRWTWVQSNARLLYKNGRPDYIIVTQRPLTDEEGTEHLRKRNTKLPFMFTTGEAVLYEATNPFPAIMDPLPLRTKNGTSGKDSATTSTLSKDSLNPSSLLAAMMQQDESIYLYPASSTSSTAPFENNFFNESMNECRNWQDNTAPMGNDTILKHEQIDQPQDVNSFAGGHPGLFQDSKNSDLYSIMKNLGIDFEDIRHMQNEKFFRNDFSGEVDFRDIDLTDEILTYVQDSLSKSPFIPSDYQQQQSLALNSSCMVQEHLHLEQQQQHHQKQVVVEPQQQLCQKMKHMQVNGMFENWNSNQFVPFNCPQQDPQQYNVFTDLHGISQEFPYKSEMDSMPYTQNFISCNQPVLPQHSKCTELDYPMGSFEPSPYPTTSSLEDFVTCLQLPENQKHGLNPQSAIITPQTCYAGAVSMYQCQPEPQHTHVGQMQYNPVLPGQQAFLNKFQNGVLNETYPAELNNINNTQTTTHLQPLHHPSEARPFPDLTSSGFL

[4] = target: T1, Nuclear receptor subfamily 1 group I member 3; assay: Transactivation of human CAR1 transfected in human HepG2 cells assessed as CYP2B6 expression at 1 to 30 uM after 24 hrs by luciferase reporter gene assay; format: ADME, cell-based; conditions: hepg2, 24 h
[5] = target: T4, Nuclear receptor subfamily 1 group I member 3 (Mus musculus, UniProt O35627); assay: Transactivation of mouse CAR1 transfected in human HepG2 cells assessed as CYP2B6 expression at 1 to 30 uM after 24 hrs by luciferase reporter gene assay; format: ADME, cell-based; conditions: hepg2, 24 h
T4 sequence (O35627 whole entry): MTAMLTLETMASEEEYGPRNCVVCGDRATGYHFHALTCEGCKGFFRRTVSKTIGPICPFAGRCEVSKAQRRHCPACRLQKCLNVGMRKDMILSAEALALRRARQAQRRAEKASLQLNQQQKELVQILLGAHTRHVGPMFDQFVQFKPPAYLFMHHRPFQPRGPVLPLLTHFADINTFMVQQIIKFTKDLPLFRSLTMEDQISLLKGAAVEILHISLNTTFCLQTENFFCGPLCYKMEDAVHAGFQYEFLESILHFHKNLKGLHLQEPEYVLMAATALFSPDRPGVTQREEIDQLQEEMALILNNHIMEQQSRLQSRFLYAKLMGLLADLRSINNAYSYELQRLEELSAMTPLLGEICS

[6] = Transactivation of human CAR1 Ala retention mutant transfected in human HepG2 cells assessed as CYP2B6 expression at 1 to 30 uM after 24 hrs by luciferase reporter gene assay; format: ADME, cell-based; conditions: hepg2, 24 h
[7] = target: T1, Nuclear receptor subfamily 1 group I member 3; assay: Transactivation of human CAR1 transfected in human primary hepatocytes assessed as nuclear translocation at 30 uM by confocal laser scanning microscopy; format: cell-based, Hepatocyte

Structure (SMILES)	Activity [1]	Activity [2]	Activity [3]	Activity [4]	Activity [5]	Activity [6]	Activity [7]
CCC1(c2ccccc2)C(=O)NC(=O)NC1=O [PHENOBARBITAL]	Active	–	–	–	–	–	–
COc1ccc2c3c1O[C@H]1C(=O)CC[C@@]4(O)[C@@H](C2)NCC[C@]314	–	Not Active	Not Active	Active	Not Active	Not Active	–
COc1ccc2c3c1O[C@H]1C(=O)CC[C@@]4(O)[C@@H](C2)N(C)CC[C@]314 [OXYCODONE]	–	Not Active	Not Active	Active	Not Active	Not Active	Not Active
CN1CC[C@]23c4c5ccc(O)c4O[C@H]2C(=O)CC[C@@]3(O)[C@H]1C5 [OXYMORPHONE]	–	Not Active	Not Active	Active	Not Active	Not Active	–
